In patent US20170129919A1, “CYCLIC DIPEPTIDE-CONTAINING COMPOSITION” (Suntory Holdings Limited, priority 2014, published 2017):
Values after ≈ are worked out from the molar mass of the structure shown. Read-outs that look alike come from different tables or passages of the source. One block for each molecule: values may come before it.

Columns and labels:
[1] = target: xanthine oxidase (XO); test: In vitro xanthine oxidase (XO) inhibiting action; assay type: biochemical; conditions: for IC50: PBS pH 7.5, xanthine substrate, absorbance at 295 nm after 30 minutes, mean±standard error; for Inhibition Rate (%) at Concentration of 100 μM: Table 2, XO inhibition at 100 μM
Experimental: The in vitro xanthine oxidase (XO) inhibiting action was studied on 210 kinds of cyclic dipeptides, linear dipeptides Tyr-Gly and Gly-Tyr, and an amino acid Tyr. […] Thereafter, 20 μL of a 250 μM xanthine solution previously dissolved in the PBS was added thereto, and the absorbance after 30 minutes was measured using a spectrophotometer (Synegy HT, manufactured by Bio Tek). The XO inhibition rate (%) at each concentration was calculated by the following calculation formula, to obtain activities of inhibiting XO (IC50 values).

[2] = Solubility in water; assay type: physicochemical; conditions: Table 5; for Solubility in Water: distilled water, 25° C., ultrasonication 30 minutes, visual examination, tested at 5, 1, 0.1, 0.01 mM, insoluble = not dissolved at 0.01 mM
Experimental: Concretely, each compound was added to distilled water (manufactured by Otsuka Pharmaceutical Co., Ltd.) at an ambient temperature (25° C.) so as to have a final concentration of 5 mM, and the mixture was stirred under ultrasonication for 30 minutes to dissolve. […] However, none of the compounds dissolved, so that distilled water was further added thereto so as to have a final concentration of 0.01 mM, and the mixture was stirred under ultrasonication for 30 minutes, but still no compounds dissolved.

[3] = Table 3, read-out: IC50 (Activity of Inhibiting XO of Phe-Containing Cyclic Dipeptides)
[4] = Table 1, read-out: IC50 (Activity of Inhibiting XO of Tyr-Containing Cyclic Dipeptides)

SMILES: CC1NC(=O)C(Cc2ccc(O)cc2)NC1=O (stereo not drawn) [Cyclo(Ala-Tyr), cycloalanyltyrosine]
- Inhibition Rate (%) at Concentration of 100 μM [1]: 8.3%
- Solubility in Water [2]: insoluble

SMILES: N=C(N)NCCCC1NC(=O)C(Cc2ccccc2)NC1=O (stereo not drawn) [Cyclo(Arg-Phe), reference compound]
- IC50 [1, 3]: > 300 µM

SMILES: NC(=O)C[C@@H]1NC(=O)[C@H](Cc2ccc(O)cc2)NC1=O [Cyclo(Asn-Tyr), cycloasparaginyltyrosine]
- IC50 [1, 4]: 113 µM
- solubility in water (in words) [2]: high solubility in water
- Solubility in Water [2]: 1000 µM (≈ 277 µg/mL)

SMILES: O=C(O)C[C@@H]1NC(=O)[C@H](Cc2ccc(O)cc2)NC1=O [Cyclo(Asp-Tyr), cycloaspartyltyrosine]
- IC50 [1, 4]: 172 µM
- solubility in water (in words) [2]: high solubility in water
- Solubility in Water [2]: 5000 µM (≈ 1390 µg/mL)

SMILES: NC(=O)CCC1NC(=O)C(Cc2ccccc2)NC1=O (stereo not drawn) [Cyclo(Gln-Phe), reference compound]
- IC50 [1, 3]: > 300 µM

SMILES: NC(=O)CC[C@@H]1NC(=O)[C@H](Cc2ccc(O)cc2)NC1=O [Cyclo(Gln-Tyr), cycloglutaminyltyrosine]
- Inhibition Rate (%) at Concentration of 100 μM [1]: 42.6%
- solubility in water (in words) [2]: high solubility in water
- Solubility in Water [2]: 1000 µM (≈ 291 µg/mL)

SMILES: O=C(O)CCC1NC(=O)C(Cc2ccccc2)NC1=O (stereo not drawn) [Cyclo(Glu-Phe), reference compound]
- IC50 [1, 3]: > 100 µM

SMILES: O=C(O)CC[C@@H]1NC(=O)[C@H](Cc2ccc(O)cc2)NC1=O [Cyclo(Glu-Tyr), cycloglutamyltyrosine]
- Inhibition Rate (%) at Concentration of 100 μM [1]: 0.4%
- solubility in water (in words) [2]: high solubility in water
- Solubility in Water [2]: 5000 µM (≈ 1460 µg/mL)

SMILES: O=C1NC(Cc2cnc[nH]2)C(=O)NC1Cc1ccccc1 (stereo not drawn) [Cyclo(His-Phe), reference compound]
- IC50 [1, 3]: > 100 µM

SMILES: CSCCC1NC(=O)C(Cc2ccccc2)NC1=O (stereo not drawn) [Cyclo(Met-Phe), reference compound]
- IC50 [1, 3]: > 100 µM

SMILES: O=C1NC(Cc2ccccc2)C(=O)NC1CS (stereo not drawn) [Cyclo(Phe-Cys), reference compound]
- IC50 [1, 3]: 133 ± 25.2 µM

SMILES: O=C1CNC(=O)C(Cc2ccccc2)N1 (stereo not drawn) [Cyclo(Phe-Gly), reference compound]
- IC50 [1, 3]: > 100 µM

SMILES: O=C1NC(Cc2ccccc2)C(=O)NC1Cc1ccccc1 (stereo not drawn) [Cyclo(Phe-Phe), reference compound]
- IC50 [1, 3]: > 100 µM

SMILES: O=C1NC(Cc2ccccc2)C(=O)N2CCCC12 (stereo not drawn) [Cyclo(Pro-Phe), reference compound]
- IC50 [1, 3]: > 100 µM

SMILES: O=C1NC(Cc2ccccc2)C(=O)NC1CO (stereo not drawn) [Cyclo(Ser-Phe), reference compound]
- IC50 [1, 3]: > 300 µM

SMILES: CC(O)C1NC(=O)C(Cc2ccccc2)NC1=O (stereo not drawn) [Cyclo(Thr-Phe), reference compound]
- IC50 [1, 3]: > 300 µM

The next lines start with the values.

- IC50 [1, 3]: > 100 µM
SMILES: CC1NC(=O)C(Cc2ccccc2)NC1=O (stereo not drawn) [Cyclo(Ala-Phe), reference compound]

- IC50 [1, 4]: 211 µM
- solubility in water (in words) [2]: high solubility in water
- Solubility in Water [2]: 5000 µM (≈ 1600 µg/mL)
SMILES: N=C(N)NCCCC1NC(=O)C(Cc2ccc(O)cc2)NC1=O (stereo not drawn) [Cyclo(Arg-Tyr), cycloarginyltyrosine]

- IC50 [1, 3]: > 300 µM
SMILES: NC(=O)CC1NC(=O)C(Cc2ccccc2)NC1=O (stereo not drawn) [Cyclo(Asn-Phe), reference compound]

- IC50 [1, 3]: > 300 µM
SMILES: O=C(O)CC1NC(=O)C(Cc2ccccc2)NC1=O (stereo not drawn) [Cyclo(Asp-Phe), reference compound]

- Inhibition Rate (%) at Concentration of 100 μM [1]: 3.2%
- solubility in water (in words) [2]: high solubility in water
- Solubility in Water [2]: 1000 µM (≈ 300 µg/mL)
SMILES: O=C1N[C@@H](Cc2c[nH]cn2)C(=O)N[C@H]1Cc1ccc(O)cc1 [Cyclo(His-Tyr), cyclohistidyltyrosine]

- IC50 [1, 3]: > 100 µM
SMILES: CCC(C)C1NC(=O)C(Cc2ccccc2)NC1=O (stereo not drawn) [Cyclo(Ile-Phe), reference compound]

- IC50 [1, 3]: > 100 µM
SMILES: CC(C)CC1NC(=O)C(Cc2ccccc2)NC1=O (stereo not drawn) [Cyclo(Leu-Phe), reference compound]

- IC50 [1, 3]: > 300 µM
SMILES: NCCCCC1NC(=O)C(Cc2ccccc2)NC1=O (stereo not drawn) [Cyclo(Lys-Phe), reference compound]

- IC50 [1, 3]: > 100 µM
SMILES: O=C1NC(Cc2c[nH]c3ccccc23)C(=O)NC1Cc1ccccc1 (stereo not drawn) [Cyclo(Trp-Phe), reference compound]

- IC50 [1, 3]: 60.5 ± 2.4 µM
SMILES: CC(C)C1NC(=O)C(Cc2ccccc2)NC1=O (stereo not drawn) [Cyclo(Val-Phe), reference compound]
